For orientation: IC50 means the midpoint of a concentration-inhibition curve.

For this assay, the target named is T1, TNF-α (Homo sapiens, UniProt P01375).
T1 construct: purchased R&D 210-TA-020/CF
Kind of assay: TNF-α Induced HEK Blue Cellular Assay (secreted alkaline phosphatase expression, QUANTI-Blue). The assay is classed as cell-based. Particulars: HEK Blue TNFα reporter cells; TNF-α 100 μg/ml; 24 hrs at 37° C.; inhibition of secreted alkaline phosphatase; read-out: IC50 value. On the procedure:
TNF-α Induced HEK Blue Cellular Assay
Test articles were diluted in DMSO and serially diluted into 384 well assay plate (Corning 3765), at final concentrations ranging from […] to 0.5 nM. HEK Blue™ TNFα reporter cells were added at a final density of 10,000 cell per well in assay media [DMEM (Gibco, cat #21063-029), 10% fetal bovine serum (ExcelBio, cat #FND500), 1% Penicillin-Streptomycin (Solarbio, cat #P1400-100]. TNF-α (R&D 210-TA-020/CF) was then added to the assay plate at a final concentration of […]. This plate was then incubated for 24 hrs at 37° C. and 5% CO2. Secreted alkaline phosphatase expression was then measured using QUANTI-Blue™ (Invivogen), according to manufacturer instructions and read on an Envision microplate reader at 620 nm.
Inhibition data for test compound over a range of concentration was plotted as percentage inhibition of the test compound (100%=maximum inhibition). IC50 values were determined after correcting for background [(sample read-mean of low control)/(mean of high control-mean of low control)] whereby the low control is DMSO without stimulation and high control is DMSO with stimulation. The IC50 is defined as the concentration of test compound which produces 50% inhibition and was quantified using the 4 parameter logistic equation to fit the data.

T1 sequence (P01375 77-233 limits assumed): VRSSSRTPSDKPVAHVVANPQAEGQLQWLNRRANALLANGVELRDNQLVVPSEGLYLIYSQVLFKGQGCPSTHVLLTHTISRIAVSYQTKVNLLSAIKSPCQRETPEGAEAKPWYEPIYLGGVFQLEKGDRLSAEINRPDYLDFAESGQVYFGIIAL

Regarding `[2H]C([2H])([2H])N1C(=O)c2cccc(OC(F)F)c2[C@H]2C[C@@H]1c1nc3ccc(C#CC4(C)CN(C(=O)C(C)(C)O)C4)cc3n12` [Example 156, (7R,14R)-1-(difluoromethoxy)-11-((1-(2-hydroxy-2-methylpropanoyl)-3-methylazetidin-3-yl)ethynyl)-6-(methyl-d3)-6,7-dihydro-7,14-methanobenzo[f]benzo[4,5]imidazo[1,2-a][1,4]diazocin-5(14H)-one], the 50% inhibitory concentration (IC50) was in the range of 100 to 1000 nM.

`[2H]C([2H])([2H])N1C(=O)c2cccc(OC(F)F)c2[C@H]2C[C@@H]1c1nc3ccc(C#CCCNCC)cc3n12` [Example 152, (7R,14R)-1-(difluoromethoxy)-11-(4-(ethylamino)but-1-yn-1-yl)-6-(methyl-d3)-6,7-dihydro-7,14-methanobenzo[f]benzo[4,5]imidazo[1,2-a][1,4]diazocin-5(14H)-one]: the IC50 was 100 to 1000 nM. On to `[2H]C([2H])([2H])N1C(=O)c2cccc(OC(F)F)c2[C@H]2C[C@@H]1c1nc3ccc(C#CC4(F)CNC4)cc3n12` [Example 253, (7R,14R)-1-(difluoromethoxy)-11-((3-fluoroazetidin-3-yl)ethynyl)-6-(methyl-d3)-6,7-dihydro-7,14-methanobenzo[f]benzo[4,5]imidazo[1,2-a][1,4]diazocin-5(14H)-one], for which the IC50 was less than 100 nM. In the case of `[2H]C([2H])([2H])N1C(=O)c2cccc(OC(F)F)c2[C@H]2C[C@@H]1c1nc3ccc(C#C[C@@H](C)O)cc3n12` [Example 179, (7R,14R)-1-(difluoromethoxy)-11-((R)-3-hydroxybut-1-yn-1-yl)-6-(methyl-d3)-6,7-dihydro-7,14-methanobenzo[f]benzo[4,5]imidazo[1,2-a][1,4]diazocin-5(14H)-one], the half-inhibitory concentration (IC50) lay within 10000 to 30000 nM. Under `[2H]C([2H])([2H])N1C(=O)c2cccc(OC(F)F)c2[C@H]2C[C@@H]1c1nc3ccc(C#CC4CN(CC(C)(C)O)C4)cc3n12` [Example 197, (7R,14R)-1-(difluoromethoxy)-11-((1-(2-hydroxy-2-methylpropyl)azetidin-3-yl)ethynyl)-6-(methyl-d3)-6,7-dihydro-7,14-methanobenzo[f]benzo[4,5]imidazo[1,2-a][1,4]diazocin-5(14H)-one] stands 10000 to 30000 nM; under `[2H]C([2H])([2H])N1C(=O)c2cccc(OC(F)F)c2[C@H]2C[C@@H]1c1nc3ccc(C#CC(O)CC)cc3n12` (single isomer, unassigned) [Example 209, (7R,14R)-1-(difluoromethoxy)-11-((S or R)-3-hydroxypent-1-yn-1-yl)-6-(methyl-d3)-6,7-dihydro-7,14-methanobenzo[f]benzo[4,5]imidazo[1,2-a][1,4]diazocin-5(14H)-one], 10000 to 30000 nM. As to `[2H]C([2H])([2H])N1C(=O)c2cccc(OC(F)F)c2[C@H]2C[C@@H]1c1nc3ccc(C#CCC(O)C(C)O)cc3n12` (single isomer, unassigned) [Example 246, (7R,14R)-1-(difluoromethoxy)-11-((4R or 4S,5R or 5S)-4,5-dihydroxyhex-1-yn-1-yl)-6-(methyl-d3)-6,7-dihydro-7,14-methanobenzo[f]benzo[4,5]imidazo[1,2-a][1,4]diazocin-5(14H)-one], the IC50 is less than 100 nM. The result for `[2H]C([2H])([2H])N1C(=O)c2cccc(OC(F)F)c2[C@H]2C[C@@H]1c1nc3ccc(C#CCCN4CC(F)(F)C4)cc3n12` [Example 233, (7R,14R)-11-(4-(3,3-difluoroazetidin-1-yl)but-1-yn-1-yl)-1-(difluoromethoxy)-6-(methyl-d3)-6,7-dihydro-7,14-methanobenzo[f]benzo[4,5]imidazo[1,2-a][1,4]diazocin-5(14H)-one] reads less than 100 nM.

Take `[2H]C([2H])([2H])N1C(=O)c2cccc(OC(F)F)c2[C@H]2C[C@@H]1c1nc3ccc(C#CC(F)F)cc3n12` [Example 247, (7R,14R)-1-(difluoromethoxy)-11-(3,3-difluoroprop-1-yn-1-yl)-6-(methyl-d3)-6,7-dihydro-7,14-methanobenzo[f]benzo[4,5]imidazo[1,2-a][1,4]diazocin-5(14H)-one]: the IC50 is less than 100 nM.

For `[2H]C([2H])([2H])N1C(=O)c2cccc(OC(F)F)c2[C@H]2C[C@@H]1c1nc3ccc(C#CCN(CC)CC)cc3n12` [Example 62, (7R,14R)-11-(3-(diethylamino)prop-1-yn-1-yl)-1-(difluoromethoxy)-6-(methyl-d3)-6,7-dihydro-7,14-methanobenzo[f]benzo[4,5]imidazo[1,2-a][1,4]diazocin-5(14H)-one], the IC50 was less than 100 nM. As for `[2H]C([2H])([2H])N1C(=O)c2cccc(OC(F)F)c2[C@H]2C[C@@H]1c1nc3ccc(C#CC(O)CC(C)(C)O)cc3n12` (single isomer, unassigned) [Example 221, (7R,14R)-1-(difluoromethoxy)-11-((S or R)-3,5-dihydroxy-5-methylhex-1-yn-1-yl)-6-(methyl-d3)-6,7-dihydro-7,14-methanobenzo[f]benzo[4,5]imidazo[1,2-a][1,4]diazocin-5(14H)-one], the IC50 is 100 to 1000 nM. Under `[2H]C([2H])([2H])N1C(=O)c2cccc(OC(F)F)c2[C@H]2C[C@@H]1c1nc3ccc(C#CCCC(C)C)cc3n12` [Example 94, (7R,14R)-1-(difluoromethoxy)-6-(methyl-d3)-11-(5-methylhex-1-yn-1-yl)-6,7-dihydro-7,14-methanobenzo[f]benzo[4,5]imidazo[1,2-a][1,4]diazocin-5(14H)-one] stands less than 100 nM; under `[2H]C([2H])([2H])N1C(=O)c2cccc(OC(F)F)c2[C@H]2C[C@@H]1c1nc3ccc(C#CCCC(F)F)cc3n12` [Example 132, (7R,14R)-1-(difluoromethoxy)-11-(5,5-difluoropent-1-yn-1-yl)-6-(methyl-d3)-6,7-dihydro-7,14-methanobenzo[f]benzo[4,5]imidazo[1,2-a][1,4]diazocin-5(14H)-one], less than 100 nM; under `[2H]C([2H])([2H])N1C(=O)c2cccc(OC(F)F)c2[C@H]2C[C@@H]1c1nc3ccc(C#CC4CC4)c(F)c3n12` [Example 168, (7R,14R)-11-(cyclopropylethynyl)-1-(difluoromethoxy)-12-fluoro-6-(methyl-d3)-6,7-dihydro-7,14-methanobenzo[f]benzo[4,5]imidazo[1,2-a][1,4]diazocin-5(14H)-one], 100 to 1000 nM. As for `[2H]C([2H])([2H])N1C(=O)c2cccc(OC(F)F)c2[C@H]2C[C@@H]1c1nc3ccc(C#Cc4ccc(P(C)(C)=O)nc4)cc3n12` [Example 112, (7R,14R)-1-(difluoromethoxy)-11-((6-(dimethylphosphoryl)pyridin-3-yl)ethynyl)-6-(methyl-d3)-6,7-dihydro-7,14-methanobenzo[f]benzo[4,5]imidazo[1,2-a][1,4]diazocin-5(14H)-one], the half-maximal inhibitory concentration (IC50) was less than 100 nM. Under `[2H]C([2H])([2H])N1C(=O)c2cccc(OC(F)F)c2[C@H]2C[C@@H]1c1nc3ccc(C#CC4(C)CN(C(=O)C5CC5(F)F)C4)cc3n12` (stereo partly drawn) [Example 210, (7R,14R)-11-((1-(2,2-difluorocyclopropane-1-carbonyl)-3-methylazetidin-3-yl)ethynyl)-1-(difluoromethoxy)-6-(methyl-d3)-6,7-dihydro-7,14-methanobenzo[f]benzo[4,5]imidazo[1,2-a][1,4]diazocin-5(14H)-one] stands 100 to 1000 nM; under `[2H]C([2H])([2H])N1C(=O)c2cccc(OC(F)F)c2[C@H]2C[C@@H]1c1nc3ccc(C#CCOC)cc3n12` [Example 42, (7R,14R)-1-(difluoromethoxy)-11-(3-methoxyprop-1-yn-1-yl)-6-(methyl-d3)-6,7-dihydro-7,14-methanobenzo[f]benzo[4,5]imidazo[1,2-a][1,4]diazocin-5(14H)-one], 100 to 1000 nM. Regarding `[2H]C([2H])([2H])N1C(=O)c2cccc(OC(F)F)c2[C@H]2C[C@@H]1c1nc3ccc(C#CC4CN(C5COC5)C4(C)C)cc3n12` (stereo partly drawn) [Example 256, (7R,14R)-1-(difluoromethoxy)-11-((2,2-dimethyl-1-(oxetan-3-yl)azetidin-3-yl)ethynyl)-6-(methyl-d3)-6,7-dihydro-7,14-methanobenzo[f]benzo[4,5]imidazo[1,2-a][1,4]diazocin-5(14H)-one], the IC50 is less than 100 nM. The result for `[2H]C([2H])([2H])N1C(=O)c2cccc(OC(F)F)c2[C@H]2C[C@@H]1c1nc3ccc(C#CC4CC(C#N)C4)cc3n12` (stereo partly drawn) [Example 141, 3-(((7R,14R)-1-(difluoromethoxy)-6-(methyl-d3)-5-oxo-5,6,7,14-tetrahydro-7,14-methanobenzo[f]benzo[4,5]imidazo[1,2-a][1,4]diazocin-11-yl)ethynyl)cyclobutane-1-carbonitrile] reads less than 100 nM; that for `[2H]C([2H])([2H])N1C(=O)c2cccc(OC(F)F)c2[C@H]2C[C@@H]1c1nc3ccc(C#CC4CN(C(C)C)C4)cc3n12` [Example 119, (7R,14R)-1-(difluoromethoxy)-11-((1-isopropylazetidin-3-yl)ethynyl)-6-(methyl-d3)-6,7-dihydro-7,14-methanobenzo[f]benzo[4,5]imidazo[1,2-a][1,4]diazocin-5(14H)-one], less than 100 nM.

The values are drawn from patent US20260365682A1, “MODULATORS OF TNF-ALPHA ACTIVITY” (Forward Therapeutics, Inc., priority 2022, published 2026).
